Assay results published in patent US20050080090A1, “Naphthalene derivatives” (priority 1993, published 2005).

SMILES | melting point
CN1CCN(c2cccc3ccc(NC(=O)c4ccc(O)cc4)cc23)CC1 [Example 10, 7-(4-Hydroxybenzamido)-1-(4-methyl-1-piperazinyl)-naphthalene] | 156 to 160 °C
CN1CCN(c2cccc3ccc(NCc4cccc5ccccc45)cc23)CC1 [Example 13, 7-(1-Naphthylmethylamino)-1-(4-methyl-1-piperazinyl)-naphthalene] | 140 to 141 °C
CN1CCN(c2cccc3ccc(NCc4ccccc4)cc23)CC1 [Example 14, 7-(Benzylamino)-1-(4-methyl-1-piperazinyl)-naphthalene] | 115 to 117 °C
CCCCCC(=O)Nc1ccc2cccc(N3CCN(C)CC3)c2c1 [Example 17, 7-Hexanamido-1-(4-methyl-1-piperazinyl)-naphthalene] | 144 to 146 °C
CN1CCN(c2cccc3ccc(NC(=O)Nc4ccccc4)cc23)CC1 [Example 19, 7-(Phenylaminocarbonylamino)-1-(4-methyl-1-piperazinyl)-naphthalene] | 213 to 214 °C
CN1CCN(c2cccc3ccc(NC(=O)OCc4ccccc4)cc23)CC1 [Example 20, 7-(Benzyloxycarbonylamino)-1-(4-methyl-1-piperazinyl)-naphthalene] | 143 to 144 °C
CN1CCN(c2cccc3ccc(Nc4nc(Cc5ccccc5)cs4)cc23)CC1 [Example 24, 4-Benzyl-2-[-1-(4-methyl-1-piperazinyl)-7-naphthylamino]-thiazole] | 157 to 160 °C
CN1CCN(c2cccc3ccc(Nc4ncccc4[N+](=O)[O-])cc23)CC1 [Example 25, 7-(3-Nitro-2-pyridinylamino)-1-(4-methyl-1-piperazinyl)-naphthalene] | 127.5 to 129 °C
CN1CCN(c2cccc3ccc(Nc4ccc([N+](=O)[O-])cn4)cc23)CC1 [Example 27, 7-(5-Nitro-2-pyridylamino)-1-(4-methyl-1-piperazinyl)-naphthalene] | 121 to 125 °C
CN1CCN(c2cccc3ccc(Nc4ccccc4[N+](=O)[O-])cc23)CC1 [Example 28, 7-(2-Nitrophenylamino)-1-(4-methyl-1-piperazinyl)-naphthalene] | 87 to 94 °C
CN1CCN(c2cccc3ccc(Nc4ncccc4NC(=O)c4ccccc4)cc23)CC1 [Example 30, 7-(3-Benzamido-2-pyridylamino)-1-(4-methyl-1-piperazinyl)-naphthalene] | 205 to 207 °C
CC(=O)Nc1cccnc1Nc1ccc2cccc(N3CCN(C)CC3)c2c1 [Example 31, 7-(3-Acetamido-2-pyridylamino)-1-(4-methyl-1-piperazinyl)-naphthalene] | 110 to 114 °C (dec.)
CN1CCN(c2cccc3ccc(-n4cnc5ncccc54)cc23)CC1 [Example 35, 7-(Imidazolo[4,5-b]pyridin-1-yl)-1-(4-methyl-1-piperazinyl)-naphthalene] | 107 to 112 °C
CN1CCN(c2cccc3ccc(-n4cnc5ccccc54)cc23)CC1 [Example 37, 7-(Benzimidazol-1-yl)-1-(4-methyl-1-piperazinyl)-naphthalene] | 148 to 150 °C
CN1CCN(c2cccc3ccc(OCc4ccc(Cl)cc4)cc23)CC1 [Example 40, 7-(4-Chlorobenzyloxy)-1-(4-methyl-1-piperazinyl)-naphthalene] | 111.5 to 112 °C
CNS(=O)(=O)c1cccc(-c2ccc3cccc(N4CCN(C)CC4)c3c2)c1 [Example 41, 7-(3-Methylaminosulfonylphenyl)-1-(4-methyl-1-piperazinyl)naphthalene] | 147.5 to 148 °C
CN1CCN(c2cccc3ccc(-c4cccc(NS(C)(=O)=O)c4)cc23)CC1 [Example 42, 7-(3-Methylsulfonylaminophenyl)-1-(4-methyl-1-piperazinyl)-naphthalene] | 100 to 101 °C
CN1CCN(c2cccc3ccc(C(=O)c4ccccc4)cc23)CC1 [Example 43, 7-Benzoyl-1-(4-methyl-1-piperazinyl)naphthalene] | 124 to 124.5 °C
CN1CCN(c2cccc3ccc(C(O)c4ccccc4)cc23)CC1 (stereo not drawn) [Example 44, 7-(α-Hydroxybenzyl)-1-(4-methyl-1-piperazinyl)-naphthalene] | 162.5 to 163 °C
CN1CCN(c2cccc3ccc(C(O)(c4ccccc4)c4ccccc4)cc23)CC1 [Example 45, 7-(Diphenylhydroxymethyl)-1-(4-methyl-1-piperazinyl)-naphthalene] | 217.5 to 218.5 °C
CN1CCN(c2cccc3ccc(OCc4ccccc4)cc23)CC1 [Example 49, 7-(Benzyloxy)-1-(4-methyl-1-piperazinyl)-naphthalene] | 81.5 to 82.5 °C
CN1CCN(c2cccc3ccc(OCc4ccc(Cl)c(Cl)c4)cc23)CC1 [Example 50, 7-(3,4-Dichlorobenzyloxy)-1-(4-methyl-1-piperazinyl)-naphthalene] | 113 to 114 °C
CN1CCN(c2cccc3ccc(OC(=O)c4ccccc4)cc23)CC1 [Example 52, 7-Benzoyloxy-1-(4-methyl-1-piperazinyl)-naphthalene] | 82 to 82.5 °C
CN1CCN(c2cccc3ccc(OC(=O)c4ccc(Cl)cc4)cc23)CC1 [Example 53, 7-(4-Chlorobenzoyloxy)-1-(4-methyl-1-piperazinyl)-naphthalene] | 110 to 111 °C
CN1CCN(c2cccc3ccc(OCc4cccc(Cl)c4)cc23)CC1 [Example 54, 7-(3-Chlorobenzyloxy)-1-(4-methyl-1-piperazinyl)-naphthalene] | 67.5 to 68 °C
CN1CCN(c2cccc3ccc(OS(=O)(=O)C(F)(F)F)cc23)CC1 [Example 55, 7-Trifluoromethylsulfonyloxy-1-(4-methyl-1-piperazinyl)-naphthalene] | 70 to 71 °C
CCCN1CCN(c2cccc3ccc(NC(=O)c4ccc(Cl)cc4)cc23)CC1 [Example 66, 7-(4-Chlorobenzamido)-1-(4-propyl-1-piperazinyl)-naphthalene] | 130 to 132 °C
CCN1CCN(c2cccc3ccc(NC(=O)c4ccc(Cl)cc4)cc23)CC1 [Example 67, 7-(4-Chlorobenzamido)-1-(4-ethyl-1-piperazinyl)-naphthalene] | 173 to 174.5 °C
CN1CCC(c2cccc3ccc(NC(=O)c4ccccc4)cc23)C1 (stereo not drawn) [Example 69, 7-Benzamido-1-(1-methyl-3-pyrrolidinyl)-naphthalene] | 137 to 145 °C
CN1CCN(c2cccc3ccc(C(=O)NCc4ccc(Cl)cc4)cc23)CC1 [Example 80, 8-(4-Methylpiperazin-1-yl)naphthalene-2-carboxylic Acid 4-chlorobenzylamide] | 72 to 74 °C
